From patent EP0933350A1, “Tricyclic retinoids, methods for their production and use” (LIGAND PHARMACEUTICALS INCORPORATED, priority 1994, dated 1996)

Assays:
[1] = molecular target: T1, RARγ (Homo sapiens, UniProt P13631); assay: co-transfection assay (RAR/RXR agonist activity, luciferase reporter in CV-1 cells); format: cell-based; details: potency = EC50, agonist, 40 hours, read-out: RARγ Pot
T1 sequence (P13631 1-454): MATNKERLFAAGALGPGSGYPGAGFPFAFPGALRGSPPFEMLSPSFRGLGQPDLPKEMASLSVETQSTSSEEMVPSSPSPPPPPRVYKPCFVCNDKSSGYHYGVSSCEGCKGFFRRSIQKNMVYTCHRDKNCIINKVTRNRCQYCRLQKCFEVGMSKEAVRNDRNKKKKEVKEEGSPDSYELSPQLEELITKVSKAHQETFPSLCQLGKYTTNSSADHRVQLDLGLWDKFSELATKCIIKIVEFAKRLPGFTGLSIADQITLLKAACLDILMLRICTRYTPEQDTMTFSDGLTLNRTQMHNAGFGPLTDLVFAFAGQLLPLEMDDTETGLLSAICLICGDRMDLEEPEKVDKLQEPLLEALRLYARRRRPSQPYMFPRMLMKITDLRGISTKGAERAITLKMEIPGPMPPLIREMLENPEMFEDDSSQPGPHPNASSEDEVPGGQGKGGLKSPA

[2] = system: ME 180 cell line; assay: incorporation of 3H-thymidine (antiproliferative); format: cell-based; details: Homo sapiens, 96 hours, radiolabeled thymidine incorporation, read-out: TdR IC50
[3] = molecular target: T2, RARβ (Homo sapiens, UniProt P10826); assay: co-transfection assay (RAR/RXR agonist activity, luciferase reporter in CV-1 cells); format: cell-based; details: potency = EC50, agonist, 40 hours, read-out: RARβ Pot
T2 sequence (P10826 1-448 isoform P10826-2): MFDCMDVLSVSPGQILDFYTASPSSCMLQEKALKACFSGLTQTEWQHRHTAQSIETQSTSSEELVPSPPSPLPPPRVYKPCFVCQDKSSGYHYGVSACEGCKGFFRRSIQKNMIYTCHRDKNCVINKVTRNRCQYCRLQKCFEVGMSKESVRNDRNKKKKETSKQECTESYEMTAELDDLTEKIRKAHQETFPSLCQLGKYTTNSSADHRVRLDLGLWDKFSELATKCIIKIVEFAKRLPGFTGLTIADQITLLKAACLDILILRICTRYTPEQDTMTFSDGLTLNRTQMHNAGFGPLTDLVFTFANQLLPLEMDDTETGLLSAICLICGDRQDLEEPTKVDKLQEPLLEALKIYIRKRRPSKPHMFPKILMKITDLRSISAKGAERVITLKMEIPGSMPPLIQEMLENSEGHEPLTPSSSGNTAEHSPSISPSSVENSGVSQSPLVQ

[4] = molecular target: T3, RARβ (Homo sapiens, UniProt P10826); assay: competitive binding of tritiated retinoids to retinoid receptors; details: competition with tritiated retinoid, Cheng-Prussof equation
T3 sequence (P10826 1-455): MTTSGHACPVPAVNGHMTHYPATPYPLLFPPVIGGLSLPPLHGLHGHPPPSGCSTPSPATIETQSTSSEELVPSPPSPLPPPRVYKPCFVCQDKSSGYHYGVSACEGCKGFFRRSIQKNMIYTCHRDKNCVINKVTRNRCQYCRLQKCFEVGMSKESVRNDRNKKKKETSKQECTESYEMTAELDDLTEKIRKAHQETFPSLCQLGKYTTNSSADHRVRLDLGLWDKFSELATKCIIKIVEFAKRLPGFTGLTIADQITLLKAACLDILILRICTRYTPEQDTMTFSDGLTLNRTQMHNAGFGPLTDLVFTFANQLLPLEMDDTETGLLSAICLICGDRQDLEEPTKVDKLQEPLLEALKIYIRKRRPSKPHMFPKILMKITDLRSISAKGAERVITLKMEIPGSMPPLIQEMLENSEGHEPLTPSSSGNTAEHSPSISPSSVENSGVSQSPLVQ

[5] = system: TPA induction of ODC; assay: ornithine decarboxylase (ODC) assay: inhibition of TPA induction of ODC; format: cell-based; details: concentration required to inhibit the TPA induction of ODC by 80 percent
[6] = molecular target: T4, RXRα (Homo sapiens, UniProt P19793); assay: co-transfection assay (RAR/RXR agonist activity, luciferase reporter in CV-1 cells); format: cell-based; details: read-out: RXRα Pot
T4 sequence (P19793 1-462): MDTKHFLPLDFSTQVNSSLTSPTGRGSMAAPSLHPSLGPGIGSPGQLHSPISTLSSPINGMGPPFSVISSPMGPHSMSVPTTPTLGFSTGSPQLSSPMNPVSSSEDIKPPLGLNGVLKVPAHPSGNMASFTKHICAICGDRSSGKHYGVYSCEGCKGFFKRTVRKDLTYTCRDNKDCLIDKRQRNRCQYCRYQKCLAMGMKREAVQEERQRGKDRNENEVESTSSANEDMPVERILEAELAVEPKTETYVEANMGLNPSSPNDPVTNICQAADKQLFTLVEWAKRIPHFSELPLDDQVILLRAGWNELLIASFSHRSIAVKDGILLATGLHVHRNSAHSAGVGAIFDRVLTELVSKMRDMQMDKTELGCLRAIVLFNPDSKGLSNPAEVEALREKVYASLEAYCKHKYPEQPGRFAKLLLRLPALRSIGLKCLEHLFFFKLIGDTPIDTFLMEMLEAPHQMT

[7] = molecular target: T5, RXRβ (Mus musculus, UniProt P28704); assay: as above; format: cell-based; details: read-out: RXRβ Pot
T5 sequence (P28704 1-520): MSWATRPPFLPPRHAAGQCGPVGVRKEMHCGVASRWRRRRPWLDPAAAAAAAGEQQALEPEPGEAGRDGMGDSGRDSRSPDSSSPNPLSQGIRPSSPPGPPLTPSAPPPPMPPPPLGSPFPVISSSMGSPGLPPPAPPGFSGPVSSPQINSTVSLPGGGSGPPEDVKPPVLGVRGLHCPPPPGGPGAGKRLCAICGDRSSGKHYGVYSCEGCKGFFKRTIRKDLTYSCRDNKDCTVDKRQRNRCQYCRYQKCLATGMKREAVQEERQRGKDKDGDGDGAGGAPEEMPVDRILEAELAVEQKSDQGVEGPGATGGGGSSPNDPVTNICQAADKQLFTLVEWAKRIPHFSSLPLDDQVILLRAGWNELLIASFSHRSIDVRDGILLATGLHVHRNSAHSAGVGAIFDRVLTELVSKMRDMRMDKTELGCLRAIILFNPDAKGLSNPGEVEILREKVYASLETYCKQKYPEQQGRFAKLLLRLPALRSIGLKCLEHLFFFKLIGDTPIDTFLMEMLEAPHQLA

[8] = system: RPMI 8226 cell line; assay: viability (tetrazolium dye, mitochondrial function); format: cell-based; details: Homo sapiens, 96 hours, read-out: MTS IC50
[9] = molecular target: T5, RXRβ; assay: competitive binding of tritiated retinoids to retinoid receptors; details: competition with tritiated retinoid, Cheng-Prussof equation
[10] = molecular target: T4, RXRα; assay: as above; details: competition with tritiated retinoid, Cheng-Prussof equation

SMILES | EC50 [1] [nM] | EC50 [3] [nM] | Kd [4] [nM] | EC50 [6] [nM] | EC50 [7] [nM] | Kd [9] [nM] | Kd [10] [nM] | IC50 [2] [nM] | IC80 [5] [nM] | IC50 [8] [nM]
CC(/C=C/C=C1/CCCc2cc3c(cc21)C(C)(C)CCC3(C)C)=C\C(=O)O [Compound 101b, (2E,4E)-3-Methyl-6-[(Z)-3,4,5,6,7,8-hexahydro-5,5,8,8-tetramethyl-2H-anthracen-1-ylidene]hexa-2,4-dienoic acid] | 7 | 8 | 299 | 35 | 55 | 30 | 34 | 8 | 0.78 | 100
CC(/C=C/CN1CCCCc2cc3c(cc21)C(C)(C)CCC3(C)C)=C\C(=O)O [Compound 138b, (2E,4E)-3-Methyl-6-[7,7,10,10-tetramethyl-2,3,4,5,7,8,9,10-octahydronaphtho[2,3-6]azepinyl)hexa-2,4-dienoic acid] | > 10000 | > 10000 | > 1000 | 422 | 204 | 276 | 136 |  |  | 
CC(/C=C/C=C1/CCOc2cc3c(cc21)C(C)(C)CCC3(C)C)=C\C(=O)O [Compound 144b] | 2 | 3 | 313 | 36 | 45 | 146 | 59 | 4 | 0.6 | 7.5

Now those with a lower EC50 [1], led by results:

EC50 [1] [nM] | EC50 [3] [nM] | Kd [4] [nM] | EC50 [6] [nM] | EC50 [7] [nM] | Kd [9] [nM] | Kd [10] [nM] | SMILES | IC50 [2] [nM] | IC80 [5] [nM] | IC50 [8] [nM]
1 | 3 | 68 | 2020 | 64 | 332 | 340 | CC(/C=C/C=C1\CCCc2cc3c(cc21)C(C)(C)CCC3(C)C)=C\C(=O)O [Compound 109b, (2E,4E)-3-Methyl-6-[(E)-3,4,5,6,7,8-hexahydro-5,5,8,8-tetramethyl-2H-anthracen-1-ylidene]hexa-2,4-dienoic acid] | 5 | 0.08 | 10
1 | 1 | 50 | 1660 | 1140 | 372 | 246 | CC(/C=C/C=C1\CCOc2cc3c(cc21)C(C)(C)CCC3(C)C)=C\C(=O)O [Compound 119b, (2E,4E)-3-Methyl-6-[(E)-2,3,6,7,8,9-hexahydro-6,6,9,9-tetramethylbenzo[g]chromen-4-ylidene]hexa-2,4-dienoic acid] | 0.6 |  | 2.6
